Source: US20110319392A1, “Thiazole Sulfonamide And Oxazole Sulfonamide Kinase Inhibitors” (priority 2009, published 2011)

Columns and labels:
[1] = target: T1, EGFR (Homo sapiens, UniProt P00533); experiment: EGFR substrate phosphorylation assay (HTRF); assay type: biochemical
T1 construct: made in house; host or cells: baculovirus expression system
Summary of the method: (§1)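 Baculovirus-expressed EGFR (0.8 nM) or ErbB2 (10 nM) in enzyme mix, preincubated 1 h at 20 °C with compound (0.00027–47.6 μM final), then 90 min at 20 °C with substrate mix of 20 μM ATP, 0.8 uM biotinylated Peptide C, MnCl2, MOPS pH 7.5. Phosphotyrosine by HTRF; pIC50 reported.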

[2] = test system: HT-29 tumor cells; experiment: Cell growth inhibition assay (CellTiter-Glo), HT-29; assay type: cell-based, Human; conditions: Homo sapiens
Summary of the method: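 Cells seeded at 500/well (HN5 and HT-29 in high-glucose DMEM/10% FBS; A375P F11s in RPMI/10% FBS with pyruvate; SK-MEL-3 in McCoy's 5A/15% FBS), then exposed next day to 1:3 serial compound dilutions (0.2% DMSO) for 3 days at 37° C. CellTiter-Glo luminescence measured ATP; IC50 derived by 4-parameter fit.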

[3] = target: T2, ErbB2 (Homo sapiens, UniProt P04626); experiment: ErbB-2 substrate phosphorylation assay (HTRF); assay type: biochemical
T2 construct: made in house; host or cells: baculovirus expression system
Summary of the method: as §1

T2 sequence (P04626 23-1255): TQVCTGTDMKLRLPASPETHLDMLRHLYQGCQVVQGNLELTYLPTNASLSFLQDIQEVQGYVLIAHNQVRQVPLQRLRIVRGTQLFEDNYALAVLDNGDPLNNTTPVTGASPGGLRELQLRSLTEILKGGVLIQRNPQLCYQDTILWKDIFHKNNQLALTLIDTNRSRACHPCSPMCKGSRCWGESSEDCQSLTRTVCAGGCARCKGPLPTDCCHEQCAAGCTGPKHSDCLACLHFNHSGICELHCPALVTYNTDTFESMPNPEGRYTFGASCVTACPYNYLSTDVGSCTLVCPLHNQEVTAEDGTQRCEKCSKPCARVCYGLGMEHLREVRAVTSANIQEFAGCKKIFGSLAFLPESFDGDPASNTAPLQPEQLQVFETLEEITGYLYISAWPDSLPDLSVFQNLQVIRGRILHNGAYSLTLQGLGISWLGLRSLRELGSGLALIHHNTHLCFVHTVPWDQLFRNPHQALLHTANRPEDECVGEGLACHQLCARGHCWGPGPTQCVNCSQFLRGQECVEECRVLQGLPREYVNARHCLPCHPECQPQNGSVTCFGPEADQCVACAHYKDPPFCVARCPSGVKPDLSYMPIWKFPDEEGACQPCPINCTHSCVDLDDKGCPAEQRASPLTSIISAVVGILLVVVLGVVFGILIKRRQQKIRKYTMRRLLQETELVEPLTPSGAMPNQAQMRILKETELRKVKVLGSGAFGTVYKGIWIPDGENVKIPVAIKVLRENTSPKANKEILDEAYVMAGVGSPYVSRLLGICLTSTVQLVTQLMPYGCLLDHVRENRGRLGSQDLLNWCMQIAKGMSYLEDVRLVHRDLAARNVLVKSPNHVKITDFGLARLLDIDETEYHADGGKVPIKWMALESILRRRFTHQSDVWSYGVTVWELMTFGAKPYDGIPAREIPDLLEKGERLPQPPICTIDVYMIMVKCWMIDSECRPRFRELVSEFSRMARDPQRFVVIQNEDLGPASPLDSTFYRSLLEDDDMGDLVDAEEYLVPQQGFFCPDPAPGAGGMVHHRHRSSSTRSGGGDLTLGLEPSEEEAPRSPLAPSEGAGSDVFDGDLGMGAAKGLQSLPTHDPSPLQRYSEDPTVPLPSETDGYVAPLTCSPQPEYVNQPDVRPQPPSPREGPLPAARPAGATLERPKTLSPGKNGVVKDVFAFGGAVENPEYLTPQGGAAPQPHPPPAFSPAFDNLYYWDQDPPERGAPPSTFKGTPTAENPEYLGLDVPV
T1 sequence (P00533 25-1210): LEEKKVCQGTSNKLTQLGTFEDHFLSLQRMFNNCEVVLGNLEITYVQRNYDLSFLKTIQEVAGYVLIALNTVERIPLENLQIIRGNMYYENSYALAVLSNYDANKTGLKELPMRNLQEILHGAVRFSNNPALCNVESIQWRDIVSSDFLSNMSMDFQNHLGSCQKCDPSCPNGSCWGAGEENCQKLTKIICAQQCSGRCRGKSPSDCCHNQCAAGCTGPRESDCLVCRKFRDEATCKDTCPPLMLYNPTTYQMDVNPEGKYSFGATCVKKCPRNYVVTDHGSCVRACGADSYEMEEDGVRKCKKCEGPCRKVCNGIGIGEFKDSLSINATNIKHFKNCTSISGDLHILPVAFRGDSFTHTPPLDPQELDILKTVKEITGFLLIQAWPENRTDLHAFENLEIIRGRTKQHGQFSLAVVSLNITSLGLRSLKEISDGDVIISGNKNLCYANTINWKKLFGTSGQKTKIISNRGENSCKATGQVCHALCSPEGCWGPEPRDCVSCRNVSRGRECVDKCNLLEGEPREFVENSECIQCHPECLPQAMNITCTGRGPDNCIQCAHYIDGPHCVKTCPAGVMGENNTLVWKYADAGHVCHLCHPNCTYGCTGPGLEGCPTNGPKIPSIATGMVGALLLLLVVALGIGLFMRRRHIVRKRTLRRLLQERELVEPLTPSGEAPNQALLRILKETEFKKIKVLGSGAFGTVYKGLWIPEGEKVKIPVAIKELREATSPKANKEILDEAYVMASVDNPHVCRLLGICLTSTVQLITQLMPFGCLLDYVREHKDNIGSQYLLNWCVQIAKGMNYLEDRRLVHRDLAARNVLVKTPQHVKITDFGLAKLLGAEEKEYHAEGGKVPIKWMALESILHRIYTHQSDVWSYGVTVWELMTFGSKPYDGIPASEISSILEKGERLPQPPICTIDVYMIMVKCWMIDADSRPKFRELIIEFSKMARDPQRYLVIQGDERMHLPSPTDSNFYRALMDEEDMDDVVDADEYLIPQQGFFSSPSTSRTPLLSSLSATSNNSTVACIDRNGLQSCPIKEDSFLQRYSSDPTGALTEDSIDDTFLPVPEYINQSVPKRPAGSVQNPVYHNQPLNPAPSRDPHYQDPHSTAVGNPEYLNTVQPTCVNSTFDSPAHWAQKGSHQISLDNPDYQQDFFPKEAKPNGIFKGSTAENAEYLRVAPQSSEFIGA

SMILES | IC50 [1] | IC50 [2] | IC50 [3]
CCc1nc(-c2cccc(NS(=O)(=O)c3ccccc3)c2)c(-c2ccnc(Nc3ccc(N4CCN(C(C)=O)CC4)nc3)n2)s1 [Example 3, N-{3-[5-(2-{[6-(4-Acetyl-1-piperazinyl)-3-pyridinyl]amino}-4-pyrimidinyl)-2-ethyl-1,3-thiazol-4-yl]phenyl}benzenesulfonamide] | > 1000 nM | 100 to 1000 nM | > 1000 nM
CCc1nc(-c2cccc(NS(=O)(=O)c3ccccc3)c2)c(-c2ccnc(Nc3ccc(N4CCOCC4)c(F)c3)n2)s1 [Example 4] | > 1000 nM | 100 to 1000 nM | > 1000 nM
CCc1nc(-c2cccc(NS(=O)(=O)c3ccccc3)c2)c(-c2ccnc(Nc3ccc(OC)c(N4CCN(CCS(C)(=O)=O)CC4)c3)n2)s1 [Example 5, N-[3-(2-Ethyl-5-{2-[(4-(methyloxy)-3-{4-[2-(methylsulfonyl)ethyl]-1-piperazinyl}phenyl)amino]-4-pyrimidinyl}-1,3-thiazol-4-yl)phenyl]benzenesulfonamide] | 100 to 1000 nM | < 100 nM | 100 to 1000 nM
CC(=O)N1CCc2cc(Nc3nccc(-c4sc(C(C)C)nc4-c4cccc(NS(=O)(=O)c5ccccc5)c4)n3)ccc21 [Example 71] | 100 to 1000 nM | < 100 nM | < 100 nM
CC(C)c1nc(-c2cccc(NS(=O)(=O)c3ccccc3)c2)c(-c2ccnc(Nc3ccc(F)c(N4CCN(CCS(C)(=O)=O)CC4)c3)n2)s1 [Example 73] | 100 to 1000 nM | 100 to 1000 nM | 100 to 1000 nM
CC(C)c1nc(-c2cccc(NS(=O)(=O)c3ccccc3)c2)c(-c2ccnc(Nc3ccc(N4CCN(CCS(C)(=O)=O)CC4)c(F)c3F)n2)s1 [Example 74] | > 1000 nM | > 1000 nM | > 1000 nM
COc1cc(N2CCN(CCF)CC2)ccc1Nc1nccc(-c2sc(C(C)C)nc2-c2cccc(NS(=O)(=O)c3c(F)cccc3F)c2)n1 [Example 79] | 100 to 1000 nM | 100 to 1000 nM | 100 to 1000 nM
CC(C)c1nc(-c2cccc(NS(=O)(=O)c3c(F)cccc3F)c2)c(-c2ccnc(Nc3cccc(N4CCN(C)CC4)c3)n2)s1 [Example 81] | < 100 nM | 100 to 1000 nM | 100 to 1000 nM
CC(C)c1nc(-c2cc(F)cc(NS(=O)(=O)c3c(F)cccc3F)c2)c(-c2ccnc(Nc3ccc(N4CCOCC4)nc3)n2)s1 [Example 84] | 100 to 1000 nM | < 100 nM | > 1000 nM
CC(C)c1nc(-c2cc(F)cc(NS(=O)(=O)c3c(F)cccc3F)c2)c(-c2ccnc(Nc3ccc(N4CCOCC4)c(F)c3)n2)s1 [Example 85] | > 1000 nM | 100 to 1000 nM | 100 to 1000 nM
CC(C)c1nc(-c2cccc(NS(=O)(=O)c3c(F)cccc3F)c2)c(-c2ccnc(Nc3ccc(N4CCCN(CCS(C)(=O)=O)CC4)nc3)n2)s1 [Example 88] | 100 to 1000 nM | < 100 nM | 100 to 1000 nM
CC(C)c1nc(-c2cccc(NS(=O)(=O)c3ccccc3)c2)c(-c2ccnc(Nc3ccc(N4CCOCC4)cn3)n2)s1 [Example 92] | > 1000 nM | > 1000 nM | > 1000 nM
C=C(C)c1nc(-c2cccc(NS(=O)(=O)c3c(F)cccc3F)c2)c(-c2ccnc(Nc3ccc(N4CCN(CCF)CC4)c(F)c3)n2)s1 [Example 93] | 100 to 1000 nM | > 1000 nM | 100 to 1000 nM
CC(C)c1nc(-c2ccc(F)c(NS(=O)(=O)c3c(F)cccc3F)c2)c(-c2ccnc(Nc3ccc(N4CCN(CCS(C)(=O)=O)CC4)c(F)c3)n2)s1 [Example 95] | 100 to 1000 nM | > 1000 nM | 100 to 1000 nM
CC(=O)N1CCN(c2ccc(Nc3nccc(-c4sc(C(C)C)nc4-c4cccc(NS(=O)(=O)c5cc(F)ccc5F)c4)n3)cn2)CC1 [Example 96] | 100 to 1000 nM | < 100 nM | > 1000 nM

The next lines start with the values.

IC50 [1] | IC50 [2] | IC50 [3] | SMILES
100 to 1000 nM | 100 to 1000 nM | > 1000 nM | CC(C)c1nc(-c2cccc(NS(=O)(=O)c3ccccc3)c2)c(-c2ccnc(Nc3ccc(CC4CCN(CCS(C)(=O)=O)CC4)c(F)c3)n2)s1 [Example 72]
100 to 1000 nM | > 1000 nM | 100 to 1000 nM | CC(C)c1nc(-c2cccc(NS(=O)(=O)c3c(F)cccc3F)c2)c(-c2ccnc(Nc3ccc(N4CCN(C(C)C)CC4)cc3O)n2)s1 [Example 78]
< 100 nM | 100 to 1000 nM | > 1000 nM | CC(C)c1nc(-c2cccc(NS(=O)(=O)c3c(F)cccc3F)c2)c(-c2ccnc(Nc3ccc(N4CCN(CCO)CC4)nc3)n2)s1 [Example 80]
< 100 nM | 100 to 1000 nM | 100 to 1000 nM | CC(C)c1nc(-c2cccc(NS(=O)(=O)c3c(F)cccc3F)c2)c(-c2ccnc(Nc3ccc(N4CCCNCC4)nc3)n2)s1 [Example 82]
> 1000 nM | > 1000 nM | > 1000 nM | CC(C)c1nc(-c2cc(F)cc(NS(=O)(=O)c3ccc(F)cc3)c2)c(-c2ccnc(Nc3ccc(N4CCOCC4)c(F)c3)n2)s1 [Example 83]
> 1000 nM | 100 to 1000 nM | 100 to 1000 nM | CC(C)c1nc(-c2cccc(NS(=O)(=O)c3c(F)cccc3F)c2)c(-c2ccnc(Nc3cc(F)c(N4CCN(CCS(C)(=O)=O)CC4)cc3F)n2)s1 [Example 87]
100 to 1000 nM | > 1000 nM | 100 to 1000 nM | CC(C)c1nc(-c2cccc(NS(=O)(=O)c3c(F)cccc3F)c2)c(-c2ccnc(Nc3ccc(N4CC[C@@H](O)C4)nc3)n2)s1 [Example 89]
< 100 nM | > 1000 nM | < 100 nM | Cc1cc(N2CCC(N3CCCCC3)CC2)ccc1Nc1nccc(-c2sc(C(C)C)nc2-c2cccc(NS(=O)(=O)c3c(F)cccc3F)c2)n1 [Example 91]
